The results in this text go back to ChEMBL document CHEMBL5465560, “Selectivity Literature for EUbOPEN Chemogenomic Library” (2024).

Holding throughout (conditions): at 10 µM
Test [1] addresses T1, Rhodopsin kinase GRK7 (Homo sapiens) (UniProt Q8WTQ7).
T1 sequence (whole entry): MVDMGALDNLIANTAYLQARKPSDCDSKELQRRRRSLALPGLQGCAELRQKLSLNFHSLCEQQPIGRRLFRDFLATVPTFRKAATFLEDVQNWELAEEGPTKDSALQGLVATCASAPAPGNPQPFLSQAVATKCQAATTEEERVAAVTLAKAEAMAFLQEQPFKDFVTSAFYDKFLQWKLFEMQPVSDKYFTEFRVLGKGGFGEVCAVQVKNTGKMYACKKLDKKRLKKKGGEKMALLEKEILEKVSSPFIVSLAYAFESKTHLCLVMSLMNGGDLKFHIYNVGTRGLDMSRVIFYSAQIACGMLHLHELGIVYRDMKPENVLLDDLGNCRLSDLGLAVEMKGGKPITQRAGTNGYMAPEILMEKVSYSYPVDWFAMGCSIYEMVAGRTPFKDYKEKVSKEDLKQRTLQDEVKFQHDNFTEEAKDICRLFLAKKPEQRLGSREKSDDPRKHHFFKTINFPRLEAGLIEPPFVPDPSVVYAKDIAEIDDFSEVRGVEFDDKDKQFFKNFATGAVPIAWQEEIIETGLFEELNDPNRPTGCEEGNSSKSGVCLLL
The test is described as follows: Selectivity interaction (KinomeScan (DiscoverX)) EUB0000607a GRK7.

Test [2] addresses T2, Serine/threonine-protein kinase Nek10 (Homo sapiens) (UniProt Q6ZWH5).
T2 sequence (whole entry): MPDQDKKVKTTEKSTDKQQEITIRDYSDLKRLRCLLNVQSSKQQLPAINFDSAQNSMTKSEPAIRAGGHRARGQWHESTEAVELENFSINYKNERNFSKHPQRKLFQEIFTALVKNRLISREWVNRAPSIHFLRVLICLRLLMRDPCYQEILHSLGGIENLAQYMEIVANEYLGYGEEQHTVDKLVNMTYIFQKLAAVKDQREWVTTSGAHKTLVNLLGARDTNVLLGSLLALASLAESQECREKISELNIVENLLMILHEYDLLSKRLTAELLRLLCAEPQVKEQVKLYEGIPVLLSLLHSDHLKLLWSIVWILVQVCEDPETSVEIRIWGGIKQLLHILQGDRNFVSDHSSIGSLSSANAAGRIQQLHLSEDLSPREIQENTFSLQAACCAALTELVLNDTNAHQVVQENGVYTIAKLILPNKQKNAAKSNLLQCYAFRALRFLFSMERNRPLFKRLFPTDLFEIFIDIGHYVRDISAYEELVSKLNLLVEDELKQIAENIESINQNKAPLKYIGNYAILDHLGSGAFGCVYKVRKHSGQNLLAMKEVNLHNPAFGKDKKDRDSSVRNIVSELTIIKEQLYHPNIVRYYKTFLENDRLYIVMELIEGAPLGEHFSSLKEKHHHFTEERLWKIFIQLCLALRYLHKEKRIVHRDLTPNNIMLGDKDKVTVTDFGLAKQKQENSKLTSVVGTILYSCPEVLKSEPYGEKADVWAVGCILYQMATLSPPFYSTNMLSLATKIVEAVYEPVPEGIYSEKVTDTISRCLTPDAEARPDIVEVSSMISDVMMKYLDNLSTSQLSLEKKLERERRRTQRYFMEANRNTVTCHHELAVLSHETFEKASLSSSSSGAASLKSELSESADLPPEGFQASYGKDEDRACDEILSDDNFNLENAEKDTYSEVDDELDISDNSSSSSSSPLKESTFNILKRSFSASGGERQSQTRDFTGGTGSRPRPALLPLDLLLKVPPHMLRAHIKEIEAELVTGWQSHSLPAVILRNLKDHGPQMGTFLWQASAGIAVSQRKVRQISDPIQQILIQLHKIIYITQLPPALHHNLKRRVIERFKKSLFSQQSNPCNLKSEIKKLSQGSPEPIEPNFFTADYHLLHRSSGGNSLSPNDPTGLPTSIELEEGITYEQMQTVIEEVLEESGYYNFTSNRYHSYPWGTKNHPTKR
The test is described as follows: Selectivity interaction (KinomeScan (DiscoverX)) EUB0000229b NEK10.

The target in test [3] is Cyclin-dependent kinase 14 (Homo sapiens) (UniProt O94921). As to the kind of experiment: Selectivity interaction (KinomeScan (DiscoverX)) EUB0000618a CDK14.
Test [4] concerns the target T3, Dual specificity protein kinase TTK (Homo sapiens) (UniProt P33981).
T3 sequence (whole entry): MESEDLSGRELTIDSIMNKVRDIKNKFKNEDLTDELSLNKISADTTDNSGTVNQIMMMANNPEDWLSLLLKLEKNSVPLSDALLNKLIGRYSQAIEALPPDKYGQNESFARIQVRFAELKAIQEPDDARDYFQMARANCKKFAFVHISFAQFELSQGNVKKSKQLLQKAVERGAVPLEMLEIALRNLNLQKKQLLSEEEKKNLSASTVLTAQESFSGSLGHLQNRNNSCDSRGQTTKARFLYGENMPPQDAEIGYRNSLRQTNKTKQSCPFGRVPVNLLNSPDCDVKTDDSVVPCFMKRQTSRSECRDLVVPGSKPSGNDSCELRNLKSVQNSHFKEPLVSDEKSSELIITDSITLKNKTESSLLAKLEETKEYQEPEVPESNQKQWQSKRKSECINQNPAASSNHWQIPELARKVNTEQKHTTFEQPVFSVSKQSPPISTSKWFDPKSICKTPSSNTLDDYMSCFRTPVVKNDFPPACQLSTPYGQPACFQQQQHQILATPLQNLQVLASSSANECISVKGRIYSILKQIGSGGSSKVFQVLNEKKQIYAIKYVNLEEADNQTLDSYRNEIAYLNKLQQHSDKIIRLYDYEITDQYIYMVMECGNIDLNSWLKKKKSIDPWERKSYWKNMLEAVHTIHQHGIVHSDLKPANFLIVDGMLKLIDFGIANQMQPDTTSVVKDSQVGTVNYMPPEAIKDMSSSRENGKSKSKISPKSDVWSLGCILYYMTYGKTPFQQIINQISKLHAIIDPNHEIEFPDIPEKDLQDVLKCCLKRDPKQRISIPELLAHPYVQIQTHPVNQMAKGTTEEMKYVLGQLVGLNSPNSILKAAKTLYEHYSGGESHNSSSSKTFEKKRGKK
The test is described as follows: Selectivity interaction (KinomeScan (DiscoverX)) EUB0000595a TTK.

Chain of Cyclin-dependent kinase 14 (Homo sapiens) (O94921 whole entry): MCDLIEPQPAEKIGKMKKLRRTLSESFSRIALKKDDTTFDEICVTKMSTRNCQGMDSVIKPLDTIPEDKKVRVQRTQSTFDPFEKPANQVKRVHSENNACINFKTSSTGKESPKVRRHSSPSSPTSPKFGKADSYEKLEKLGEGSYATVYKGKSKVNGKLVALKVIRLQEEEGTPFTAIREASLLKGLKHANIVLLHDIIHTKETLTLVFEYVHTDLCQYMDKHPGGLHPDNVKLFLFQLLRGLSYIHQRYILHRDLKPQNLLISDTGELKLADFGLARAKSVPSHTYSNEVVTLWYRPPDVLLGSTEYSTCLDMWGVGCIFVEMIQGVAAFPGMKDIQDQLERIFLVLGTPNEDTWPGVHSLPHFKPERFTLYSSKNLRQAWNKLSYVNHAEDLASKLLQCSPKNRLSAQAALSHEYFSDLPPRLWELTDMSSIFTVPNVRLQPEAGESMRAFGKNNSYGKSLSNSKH

With `CNC(=O)Nc1ccc(-c2nc(N3CC4CCC(C3)O4)c3cnn(C4CCC5(CC4)OCCO5)c3n2)cc1`, the % of control in test [1] stood at 91%.
The compound `COc1cc(N(C)c2ccnc3ccc(C(F)(F)F)cc23)cc(OC)c1OC` registered a % binding in test [2] of 100%.
`O[C@H]1CC[C@H](Nc2ncc3nc(Nc4c(F)cc(F)cc4F)n([C@H]4CCOC4)c3n2)CC1` returned a % of control in test [3] of 100%.
In turn, `COCC(=O)NC/C=C/c1ccc2ncnc(Nc3ccc(Oc4ccc(C)nc4)c(C)c3)c2c1` [CP-724714] came in with a % of control in test [4] of 80%.
